Laboratory results as given in PubChem BioAssay AID1259407 (Chemical Carcinogenesis Research Information System (CCRIS), 2018).
Active and inactive are the calls of the source. How the calls were made is not given here.

Test system: CCRIS mutagenicity, Ames/micronucleus/aberration tests
Test: CCRIS mutagenicity studies
Source text: The CCRIS database contains chemical records with carcinogenicity, mutagenicity, tumor promotion, and tumor inhibition test results. It was developed by the National Cancer Institute (NCI). Data are derived from studies cited in primary journals, current awareness tools, NCI reports, and other sources. Test results have been reviewed by experts in carcinogenesis and mutagenesis.
CCRIS provides historical information from the years 1985 - 2011. It is no longer updated.
This is an archive assay for CCRIS mutagenicity studies.

[1] = Test System: AMES SALMONELLA TYPHIMURIUM, Strain/Indicator: TA1535, Metabolic Activation: NONE, Method: STANDARD PLATE
[2] = Test System: AMES SALMONELLA TYPHIMURIUM, Strain/Indicator: TA98, Metabolic Activation: HAMSTER, LIVER, S-9, AROCLOR 1254 (10%), Method: PREINCUBATION
[3] = Test System: AMES SALMONELLA TYPHIMURIUM, Strain/Indicator: TA98, Metabolic Activation: NONE, Method: PREINCUBATION
[4] = Test System: AMES SALMONELLA TYPHIMURIUM, Strain/Indicator: TA98, Metabolic Activation: RAT, LIVER, S-9, AROCLOR 1254 (10%), Method: PREINCUBATION
[5] = Test System: AMES SALMONELLA TYPHIMURIUM, Strain/Indicator: TA100, Metabolic Activation: HAMSTER, LIVER, S-9, AROCLOR 1254 (10%), Method: PREINCUBATION
[6] = Test System: AMES SALMONELLA TYPHIMURIUM, Strain/Indicator: TA100, Metabolic Activation: NONE, Method: PREINCUBATION
[7] = Test System: AMES SALMONELLA TYPHIMURIUM, Strain/Indicator: TA100, Metabolic Activation: RAT, LIVER, S-9, AROCLOR 1254 (10%), Method: PREINCUBATION
[8] = Test System: AMES SALMONELLA TYPHIMURIUM, Strain/Indicator: TA1535, Metabolic Activation: NONE, Method: PREINCUBATION
[9] = Test System: AMES SALMONELLA TYPHIMURIUM, Strain/Indicator: TA100, Metabolic Activation: RAT, LIVER, S-9, AROCLOR 1254, Method: STANDARD PLATE

Which mutagenic call (Test System: AMES SALMONELLA TYPHIMURIUM, Strain/Indicator: TA98, Metabolic Activation: NONE, Method: STANDARD PLATE) does the source give for `CCOC(=O)C[n+]1csc2ccccc21` here?
Its mutagenic call is “inactive; negative”.

And the mutagenic call (Test System: AMES SALMONELLA TYPHIMURIUM, Strain/Indicator: TA100, Metabolic Activation: NONE, Method: STANDARD PLATE)?
Its mutagenic call is “inactive; negative”.

And the mutagenic call [1]?
The mutagenic call was “inactive; negative”.

And the mutagenic call (Test System: E.COLI, Strain/Indicator: WP2, Metabolic Activation: NONE, Method: STANDARD PLATE)?
Its mutagenic call is “inactive; negative”.

What about the mutagenic call (Test System: E.COLI, Strain/Indicator: WP2 UVRA, Metabolic Activation: NONE, Method: STANDARD PLATE) of the same molecule?
The mutagenic call was “inactive; negative”.

How did the mutagenic call (Test System: AMES SALMONELLA TYPHIMURIUM, Strain/Indicator: TA100, Metabolic Activation: NONE, Method: LIQUID INCUBATION) turn out when `O=NN(CCc1c[nH]c2ccccc12)C1OC[C@@H](O)[C@H](O)[C@H]1O` (stereo partly specified) was run?
The mutagenic call was “active; positive”.

Which results are given for `CCOP(=S)(OCC)OP(=S)(OCC)OCC`?
mutagenic call (Test System: AMES SALMONELLA TYPHIMURIUM, Strain/Indicator: TA97, Metabolic Activation: HAMSTER, LIVER, S-9, AROCLOR 1254 (10%), Method: PREINCUBATION): inactive; negative; mutagenic call (Test System: AMES SALMONELLA TYPHIMURIUM, Strain/Indicator: TA97, Metabolic Activation: NONE, Method: PREINCUBATION): inactive; negative; mutagenic call (Test System: AMES SALMONELLA TYPHIMURIUM, Strain/Indicator: TA97, Metabolic Activation: RAT, LIVER, S-9, AROCLOR 1254 (10%), Method: PREINCUBATION): inactive; negative; mutagenic call [2]: inactive; negative; mutagenic call [3]: inactive; negative; mutagenic call [4]: inactive; negative; mutagenic call [5]: inactive; negative; mutagenic call [6]: inactive; negative; mutagenic call [7]: inactive; negative; mutagenic call (Test System: AMES SALMONELLA TYPHIMURIUM, Strain/Indicator: TA1535, Metabolic Activation: HAMSTER, LIVER, S-9, AROCLOR 1254 (5, 10 OR 30%), Method: PREINCUBATION): active; positive; mutagenic call [8]: inactive; negative; mutagenic call (Test System: AMES SALMONELLA TYPHIMURIUM, Strain/Indicator: TA1535, Metabolic Activation: RAT, LIVER, S-9, AROCLOR 1254 (10 OR 30%), Method: PREINCUBATION): inactive; negative

Which mutagenic call [6] does the source give for `CC(=O)[C@]1(C)O[C@@]12C=Cc1ccccc1C2=O` here?
The mutagenic call was “inactive; negative”.

How did the mutagenic call [2] turn out when `CCc1c(Br)c(Br)c(Br)c(Br)c1Br` was run?
Its mutagenic call is “inactive; negative”.

What about the mutagenic call [3] of the same molecule?
The mutagenic call was “inactive; negative”.

What about the mutagenic call [4] of the same molecule?
The mutagenic call was “inactive; negative”.

What about the mutagenic call [5] of the same molecule?
The mutagenic call was “inactive; negative”.

What about the mutagenic call [6] of the same molecule?
Its mutagenic call is “inactive; negative”.

What about the mutagenic call [7] of the same molecule?
The mutagenic call was “inactive; negative”.

And the mutagenic call (Test System: AMES SALMONELLA TYPHIMURIUM, Strain/Indicator: TA1535, Metabolic Activation: HAMSTER, LIVER, S-9, AROCLOR 1254 (10%), Method: PREINCUBATION)?
The mutagenic call was “inactive; negative”.

What about the mutagenic call [8] of the same molecule?
The mutagenic call was “inactive; negative”.

And the mutagenic call (Test System: AMES SALMONELLA TYPHIMURIUM, Strain/Indicator: TA1535, Metabolic Activation: RAT, LIVER, S-9, AROCLOR 1254 (10%), Method: PREINCUBATION)?
The mutagenic call was “inactive; negative”.

And the mutagenic call (Test System: AMES SALMONELLA TYPHIMURIUM, Strain/Indicator: TA1537, Metabolic Activation: HAMSTER, LIVER, S-9, AROCLOR 1254 (10%), Method: PREINCUBATION)?
Its mutagenic call is “inactive; negative”.

And the mutagenic call (Test System: AMES SALMONELLA TYPHIMURIUM, Strain/Indicator: TA1537, Metabolic Activation: NONE, Method: PREINCUBATION)?
Its mutagenic call is “inactive; negative”.

And the mutagenic call (Test System: AMES SALMONELLA TYPHIMURIUM, Strain/Indicator: TA1537, Metabolic Activation: RAT, LIVER, S-9, AROCLOR 1254 (10%), Method: PREINCUBATION)?
Its mutagenic call is “inactive; negative”.

What does the source list for `C[C@H](CCC(=O)O)[C@H]1CC[C@H]2[C@@H]3CC[C@@H]4C[C@@H](O)CC[C@]4(C)[C@H]3C[C@H](O)[C@]12C`?
mutagenic call (Test System: AMES SALMONELLA TYPHIMURIUM, Strain/Indicator: TA98, Metabolic Activation: NONE, Method: FLUCTUATION TEST): inactive; negative; mutagenic call [3]: inactive; negative; mutagenic call (Test System: AMES SALMONELLA TYPHIMURIUM, Strain/Indicator: TA98, Metabolic Activation: RAT, LIVER, S-9, PCB, Method: PREINCUBATION): inactive; negative; mutagenic call (Test System: AMES SALMONELLA TYPHIMURIUM, Strain/Indicator: TA100, Metabolic Activation: NONE, Method: FLUCTUATION TEST): inactive; negative

With `O=C(O)C1=C/C(=N\Nc2ccc(-c3ccc(N=Nc4ccc(N/N=C5\C=CC(=O)C(C(=O)O)=C5)c5cc(S(=O)(=O)O)ccc45)cc3)cc2)C=CC1=O` as the molecule, how does the mutagenic call (Test System: AMES SALMONELLA TYPHIMURIUM, Strain/Indicator: TA98, Metabolic Activation: HAMSTER, LIVER, S-9, Method: PREINCUBATION (PRIVAL METHOD)) read?
The mutagenic call was “active; positive”.

With `N[C@@H](CCC(=O)N[C@@H](CSC(=O)NCCCl)C(=O)NCC(=O)O)C(=O)O` as the molecule, how does the mutagenic call [1] read?
Its mutagenic call is “active; positive”.

How did the mutagenic call (Test System: CHINESE HAMSTER V-79, Strain/Indicator: V-79/6-THIOGUANINE, Metabolic Activation: NONE, Method: STANDARD PLATE) turn out when `COc1c(O)cc(Cl)cc1Cl` was run?
The mutagenic call was “inactive; negative”.

`Cc1ccc2nc3c4c(ccc3c(C)c2c1)[C@H](O)[C@@H](O)C=C4` was tested. Which mutagenic call [9] did it give?
Its mutagenic call is “active; positive”.

For `Cc1ccc2c(c1)Cc1cc(C)ccc1-2`, which mutagenic call (Test System: AMES SALMONELLA TYPHIMURIUM, Strain/Indicator: TA98, Metabolic Activation: RAT, LIVER, S-9, AROCLOR 1254, Method: STANDARD PLATE) is on record?
Its mutagenic call is “inactive; negative”.

And the mutagenic call [9]?
The mutagenic call was “inactive; negative”.
